Experimental data from PubChem BioAssay AID248 (DTP/NCI, 2004).
“And” between values parts separate entries of the source, which are not always exact repeats. Equal entries are not always repeated. Inconclusive results and toxic doses are left out. No stated cut-off is given here; in the data, active means T/C of 150% or more; inactive means T/C below 125%.

Test system: L1210 leukemia ip in BDF1 mice, survival T/C
Experiment: NCI In Vivo Anticancer Drug Screen. Data for tumor model L1210 Leukemia (intraperitoneal) in B6D2F1 (BDF1) mice
Details: endpoint: mean survival time, higher = longer survival
In short: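 Mice bearing the transplanted tumor received compound or vehicle. Survival of the treated group was divided by that of the vehicle-treated control group to give the ratio.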

[1] = dose: 400.0 mg/kg/injection, schedule: Q04DX002 (ip), vehicle: Klucel (hydroxypropylcellulose) (HPC)
[2] = dose: 100.0 mg/kg/injection, schedule: Q01DX001 (ip), vehicle: saline
[3] = dose: 6.25 mg/kg/injection, schedule: Q01DX009 (ip), vehicle: saline with Tween-80
[4] = dose: 12.5 mg/kg/injection, schedule: Q01DX009 (ip), vehicle: saline with Tween-80
[5] = dose: 25.0 mg/kg/injection, schedule: Q01DX009 (ip), vehicle: saline with Tween-80
[6] = dose: 100.0 mg/kg/injection, schedule: Q01DX009 (ip), vehicle: Klucel (hydroxypropylcellulose) (HPC)
[7] = dose: 200.0 mg/kg/injection, schedule: Q01DX009 (ip), vehicle: Klucel (hydroxypropylcellulose) (HPC)
[8] = dose: 400.0 mg/kg/injection, schedule: Q01DX009 (ip), vehicle: Klucel (hydroxypropylcellulose) (HPC)

Measured: T/C

CCCCOP(=O)(N1CC1CC)N1CC1CC (stereo unspecified)
inactive: dose: 6.25 mg/kg/injection, schedule: Q01DX009 (ip), vehicle: other 99 % of control | dose: 6.25 mg/kg/injection, schedule: Q04DX003 (ip), vehicle: other 95 % of control | dose: 12.5 mg/kg/injection, schedule: Q01DX009 (ip), vehicle: other 95 % of control | dose: 12.5 mg/kg/injection, schedule: Q04DX003 (ip), vehicle: other 97 % of control | dose: 25.0 mg/kg/injection, schedule: Q01DX009 (ip), vehicle: other 92 % of control | dose: 25.0 mg/kg/injection, schedule: Q04DX003 (ip), vehicle: other 92 % of control | dose: 50.0 mg/kg/injection, schedule: Q04DX003 (ip), vehicle: other 94 % of control | dose: 100.0 mg/kg/injection, schedule: Q04DX003 (ip), vehicle: other 95 % of control

NC(CSS(=O)(=O)O)=NCCc1ccccn1
inactive: dose: 12.5 mg/kg/injection, schedule: Q04DX002 (ip), vehicle: Klucel (hydroxypropylcellulose) (HPC) 100 % of control | dose: 25.0 mg/kg/injection, schedule: Q04DX002 (ip), vehicle: Klucel (hydroxypropylcellulose) (HPC) 88 % of control | dose: 50.0 mg/kg/injection, schedule: Q04DX002 (ip), vehicle: Klucel (hydroxypropylcellulose) (HPC) 91 % of control | [1] 90 % of control

OC(CCl)CN1CC[N+]2(CC1)CC[N+]1(CCN(CC(O)CCl)CC1)CC2 (stereo unspecified)
inactive: dose: 37.5 mg/kg/injection, schedule: Q01DX009 (ip), vehicle: water 100 % of control | dose: 59.0 mg/kg/injection, schedule: Q01DX009 (ip), vehicle: water 105 % of control | dose: 75.0 mg/kg/injection, schedule: Q01DX009 (ip), vehicle: water 101 % of control | dose: 88.0 mg/kg/injection, schedule: Q01DX009 (ip), vehicle: water 104 % of control | dose: 132.0 mg/kg/injection, schedule: Q01DX009 (ip), vehicle: water 107 % of control | dose: 150.0 mg/kg/injection, schedule: Q01DX009 (ip), vehicle: water 114 % of control | dose: 200.0 mg/kg/injection, schedule: Q01DX009 (ip), vehicle: water 102 % of control | dose: 300.0 mg/kg/injection, schedule: Q01DX009 (ip), vehicle: water 93 % of control and 95 % of control

CCOC(=O)C1=C(NNC(N)=S)C2CCN1CC2
inactive: [2] 105 % of control | dose: 200.0 mg/kg/injection, schedule: Q01DX001 (ip), vehicle: saline 100 % of control | dose: 400.0 mg/kg/injection, schedule: Q01DX001 (ip), vehicle: saline 101 % of control

COc1cc2c(c(OC)c1OC)-c1ccc(O)c(=O)cc1C(N)CC2 (stereo unspecified)
inactive: [3] 98 % of control | [4] 100 % of control | [5] 94 % of control

O=C/C=C/c1cccnc1
inactive: [5] 92 % of control | dose: 50.0 mg/kg/injection, schedule: Q01DX009 (ip), vehicle: saline with Tween-80 100 % of control | dose: 100.0 mg/kg/injection, schedule: Q01DX009 (ip), vehicle: saline with Tween-80 101 % of control | dose: 200.0 mg/kg/injection, schedule: Q01DX009 (ip), vehicle: saline with Tween-80 99 % of control

C=C(Br)CN(CC)C(C)=O
inactive: dose: 100.0 mg/kg/injection, schedule: Q04DX003 (ip), vehicle: saline 108 % of control

O=C(C=C(C(F)(F)F)C(F)(F)F)c1ccc(Cl)cc1
inactive: dose: 3.13 mg/kg/injection, schedule: Q01DX009 (ip), vehicle: saline with Tween-80 101 % of control | [3] 97 % of control | [4] 100 % of control | [5] 97 % of control and 101 % of control | dose: 50.0 mg/kg/injection, schedule: Q04DX003 (ip), vehicle: saline with Tween-80 91 % of control | dose: 100.0 mg/kg/injection, schedule: Q04DX003 (ip), vehicle: saline with Tween-80 86 % of control | dose: 200.0 mg/kg/injection, schedule: Q04DX003 (ip), vehicle: saline with Tween-80 86 % of control

CN1C2C=C(c3ccccc3)C(Br)C1CC2 (stereo unspecified)
inactive: dose: 20.0 mg/kg/injection, schedule: Q04DX003 (ip), vehicle: saline with Tween-80 95 % of control | dose: 40.0 mg/kg/injection, schedule: Q04DX003 (ip), vehicle: saline with Tween-80 97 % of control | dose: 75.0 mg/kg/injection, schedule: Q01DX001 (ip), vehicle: saline 102 % of control | dose: 150.0 mg/kg/injection, schedule: Q01DX001 (ip), vehicle: saline 98 % of control

O=C(O)/C(=C\CCC/C=C(\CCO)C(=O)O)CCO
inactive: dose: 100.0 mg/kg/injection, schedule: Q01DX001 (ip), vehicle: DMSO 100 % of control | dose: 100.0 mg/kg/injection, schedule: Q01DX009 (ip), vehicle: DMSO 99 % of control | dose: 200.0 mg/kg/injection, schedule: Q01DX001 (ip), vehicle: DMSO 97 % of control | dose: 200.0 mg/kg/injection, schedule: Q01DX009 (ip), vehicle: DMSO 99 % of control | dose: 400.0 mg/kg/injection, schedule: Q01DX001 (ip), vehicle: DMSO 102 % of control | dose: 400.0 mg/kg/injection, schedule: Q01DX009 (ip), vehicle: DMSO 91 % of control

N#CC12OC1(C#N)C(=O)c1ccccc1C2=O (stereo unspecified)
inactive: dose: 75.0 mg/kg/injection, schedule: Q01DX001 (ip), vehicle: Klucel (hydroxypropylcellulose) (HPC) 92 % of control

CCC(CC)C(=O)O.[Ag]
inactive: [2] 101 % of control

Nc1nc2n(n1)C(=O)C(=O)N2
inactive: dose: 100.0 mg/kg/injection, schedule: Q01DX005 (ip), vehicle: Klucel (hydroxypropylcellulose) (HPC) 109 % of control | [6] 101 % of control | dose: 100.0 mg/kg/injection, schedule: Q04DX002 (ip), vehicle: Klucel (hydroxypropylcellulose) (HPC) 101 % of control | dose: 200.0 mg/kg/injection, schedule: Q01DX005 (ip), vehicle: Klucel (hydroxypropylcellulose) (HPC) 98 % of control | [7] 104 % of control | dose: 200.0 mg/kg/injection, schedule: Q04DX002 (ip), vehicle: Klucel (hydroxypropylcellulose) (HPC) 96 % of control | dose: 400.0 mg/kg/injection, schedule: Q01DX005 (ip), vehicle: Klucel (hydroxypropylcellulose) (HPC) 95 % of control | [8] 96 % of control | [1] 96 % of control

NS(=O)(=O)c1ccc(NC(=O)Nc2ccccc2C(F)(F)F)cc1
inactive: [6] 100 % of control | [7] 89 % of control | [8] 93 % of control

O=CNc1ccc(Cl)cc1
inactive: dose: 25.0 mg/kg/injection, schedule: Q04DX003 (ip), vehicle: Klucel (hydroxypropylcellulose) (HPC) 92 % of control | dose: 50.0 mg/kg/injection, schedule: Q04DX003 (ip), vehicle: Klucel (hydroxypropylcellulose) (HPC) 92 % of control | dose: 100.0 mg/kg/injection, schedule: Q04DX003 (ip), vehicle: Klucel (hydroxypropylcellulose) (HPC) 87 % of control | dose: 200.0 mg/kg/injection, schedule: Q04DX003 (ip), vehicle: Klucel (hydroxypropylcellulose) (HPC) 97 % of control

CNC(=O)Oc1cccc(CN(C)C)c1
inactive: dose: 5.0 mg/kg/injection, schedule: Q01DX001 (ip), vehicle: saline 98 % of control | dose: 10.0 mg/kg/injection, schedule: Q01DX001 (ip), vehicle: saline 96 % of control | dose: 20.0 mg/kg/injection, schedule: Q01DX001 (ip), vehicle: saline 96 % of control

Cc1cc2cc3ccc(Cl)nn3c2n[n+]1[O-]
inactive: dose: 62.5 mg/kg/injection, schedule: Q04DX002 (ip), vehicle: Klucel (hydroxypropylcellulose) (HPC) 100 % of control | dose: 125.0 mg/kg/injection, schedule: Q04DX002 (ip), vehicle: Klucel (hydroxypropylcellulose) (HPC) 122 % of control
